How the values were obtained:
ERK2 (wild-type) = ERK2 (wild-type) (Homo sapiens, UniProt P28482); assay: Coupled spectrophotometric kinase assay, ERK2 (wild-type); format: biochemical
ERK2 (Q105A) = ERK2 (Q105A) (Homo sapiens, UniProt P28482, Q105A); assay: Coupled spectrophotometric kinase assay, ERK2 (Q105A); format: biochemical
ERK2 (Q105T) = ERK2 (Q105T) (Homo sapiens, UniProt P28482, Q105T); assay: Coupled spectrophotometric kinase assay, ERK2 (Q105T); format: biochemical
p38 = p38 (Homo sapiens, UniProt Q16539); assay: Coupled spectrophotometric kinase assay, p38; format: biochemical; conditions: read-out: KM for ATP
JNK3 (M146A) = JNK3 (M146A) (Homo sapiens, UniProt P53779, M146A); assay: Coupled spectrophotometric kinase assay, JNK3 (M146A)
Experimental: (§1) Due to the different Km values for the wild-type and mutant JNK3 enzymes we assayed each one with different ATP concentrations:
(§2) Enzyme concentrations in the assay were 5-10 nM. As for ERK2, the kinase phosphate acceptor substrate was the EGF receptor peptide (SEQ ID NO:23) used at 200 μM. Data analysis to determine Ki values was also as described for ERK2.

JNK3 (wild-type) = JNK3 (wild-type) (Homo sapiens, UniProt P53779); assay: Coupled spectrophotometric kinase assay, JNK3 (wild-type)
Experimental: as §1, §2

JNK3 (M146A/D150G) = JNK3 (M146A/D150G) (Homo sapiens, UniProt P53779, D150G/M146A); assay: Coupled spectrophotometric kinase assay, JNK3 (M146A/D150G)
Experimental: as §1, §2

[1] = 100 μM ATP, 200 μM EGF receptor peptide, read-out: Inhibition constants, Ki

Chain of JNK3 (wild-type) (P53779 40-402): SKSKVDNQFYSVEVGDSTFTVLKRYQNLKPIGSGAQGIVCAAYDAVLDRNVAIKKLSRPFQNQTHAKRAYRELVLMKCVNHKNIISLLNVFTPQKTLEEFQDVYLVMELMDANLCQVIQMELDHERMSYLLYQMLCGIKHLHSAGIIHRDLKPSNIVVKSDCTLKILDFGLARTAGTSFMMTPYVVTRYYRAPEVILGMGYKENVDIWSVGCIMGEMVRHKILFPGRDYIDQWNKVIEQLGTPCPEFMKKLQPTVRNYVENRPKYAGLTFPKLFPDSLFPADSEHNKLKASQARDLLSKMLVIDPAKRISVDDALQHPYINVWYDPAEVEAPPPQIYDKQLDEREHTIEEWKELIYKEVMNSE
Chain of JNK3 (M146A/D150G) (P53779 40-402 M146A/D150G): as the sequence (P53779 40-402) above, with M107A, D111G counted along it
Chain of JNK3 (M146A) (P53779 40-402 M146A): as the sequence (P53779 40-402) above, with M107A counted along it
Chain of p38 (Q16539 whole entry): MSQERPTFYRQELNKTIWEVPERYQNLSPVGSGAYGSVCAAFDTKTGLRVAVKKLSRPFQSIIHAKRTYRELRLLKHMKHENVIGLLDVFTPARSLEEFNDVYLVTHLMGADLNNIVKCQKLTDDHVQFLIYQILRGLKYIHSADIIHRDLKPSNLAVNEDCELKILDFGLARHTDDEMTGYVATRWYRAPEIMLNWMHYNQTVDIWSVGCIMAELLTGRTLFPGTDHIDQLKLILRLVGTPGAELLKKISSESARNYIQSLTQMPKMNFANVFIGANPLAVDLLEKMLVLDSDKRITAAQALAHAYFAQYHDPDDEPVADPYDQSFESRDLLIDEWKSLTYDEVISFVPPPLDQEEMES

For `Nc1ncnc2c1ncn2[C@@H]1O[C@H](COP(=O)(O)OP(=O)(O)OP(=O)(O)O)[C@@H](O)[C@H]1O` [ATP], the Km (ERK2 (wild-type); read-out: KM for ATP) was 76 ± 14 µM, the Km (ERK2 (Q105A); read-out: KM for ATP) was 51 ± 6 µM and the Km (ERK2 (Q105T); read-out: KM for ATP) was 33 ± 4 µM. For the same compound, the Km (p38) was 260 ± 30 µM, the Km (JNK3 (M146A); read-out: KM for ATP, JNK3 (M146A)) was 75 µM and the Km (JNK3 (wild-type); read-out: KM for ATP, JNK3 (wild-type)) was 15 µM. It also gave a Km (JNK3 (M146A/D150G); read-out: KM for ATP, JNK3 (M146A/D150G)) of 311 µM.

`Oc1ccc(-c2nc(-c3ccc(F)cc3)c(-c3ccncc3)[nH]2)cc1` [SB202190, reference compound] was tested, and the Ki (ERK2 (wild-type); [1]) was over 20000 nM, the Ki (ERK2 (Q105A); [1]) was 0.81 ± 0.19 nM and the Ki (ERK2 (Q105T); [1]) was 6.8 ± 0.6 nM. For the same compound, the “increase in sensitivity versus wild-type JNK3” value (JNK3 (M146A); JNK3 M146A mutant) was ~4,000 fold, the “sensitivity of wild-type JNK3 (in words)” value (JNK3 (wild-type); wild-type JNK3) was “moderately sensitive” and the “sensitivity of the JNK3 double mutant (in words)” value (JNK3 (M146A/D150G); JNK3 (M146A/D150G) compared with wild-type and single mutant) was “considerably more sensitive than wild-type, but significantly less than observed for the single mutant”.
